Measurements as given in patent US9079913B2, “Spiro-oxindole MDM2 antagonists” (The Regents of the University of Michigan, priority 2009, dated 2015).
Read-outs that look alike come from different tables or passages of the source.

What was measured:
[1] = biological target: recombinant human His-tagged MDM2 protein (residues 1-118) (Homo sapiens (Human), UniProt Q00987); assay: Fluorescence-polarization MDM2 binding assay;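 note: fluorescence polarization read after three hours of incubation in potassium phosphate buffer containing bovine gamma globulin and Triton X-100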
Procedure: The assay was performed in the buffer: 100 mM potassium phosphate, pH 7.5; 100 μg/mL bovine gamma globulin; 0.02% sodium azide, 0.01% Triton X-100) and the polarization values were measured after 3 h of incubation using an ULTRA READER (Tecan U.S. Inc., Research Triangle Park, N.C.). […] The Kd value was calculated using the equation: Kd value=IC50−L0/2.
The polarization values were measured after 3 h of incubation. […] Curve fitting was performed using [sequence] PRISM software (GraphPad Software, Inc., San Diego, Calif.). […] Compounds shown in Tables 19A-D as the free base were tested either as the free base or as the CF3CO2H (TFA) or HCl salt.

[2] = tested on: Isogenic HCT-116 colon cancer cell lines; assay: cells; format: cell-based; details: Homo sapiens;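 note: cells grown in 96-well plates in McCoy's 5A medium with 10% FBS, exposed to compound for 4 days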
Procedure: Cells were seeded in 96-well flat bottom cell culture plates at a density of 2−3×10^3 cells/well with compounds and incubated for 4 days.

[3] = tested on: cancer cell lines with wild-type p53 / mutated or deleted p53 (ATCC); assay: Cell growth assay (WST-8), other cancer cell lines; format: cell-based; details: for IC50: Homo sapiens
[4] = In vitro microsomal stability, rat; format: in vitro ADME
[5] = In vitro microsomal stability, human; format: in vitro ADME
[6] = Table 19C, read-out: Bidning affinities to MDM2 as determined using FP assay IC50
[7] = HCT-116, read-out: Cell growth inhibition using WST assay, HCT116 p53KO IC50, Table 19C, HCT116 p53KO
[8] = HCT-116, read-out: Cell growth inhibition using WST assay, HCT116 p53WT IC50, Table 19C, HCT116 p53WT
[9] = LNCaP, Table 19C, LNCaP cells, read-out: Cell growth inhibition using WST assay, LNCaP IC50
[10] = PC-3, Table 19C, PC3 cells, read-out: Cell growth inhibition using WST assay, PC3 IC50
[11] = Table 19A, FP binding assay, read-out: MDM2 IC50
[12] = HCT-116, read-out: HCT-116 (p53-/-) IC50, Table 19A, HCT-116 p53-/-, cell growth
[13] = HCT-116, read-out: HCT-116 (p53 wild-type) IC50, Table 19A, HCT-116 p53 wild-type, cell growth
[14] = LNCaP, Table 19A, LNCAP cells, p53 wild-type, cell growth, read-out: LNCAP (p53 wild-type) IC50
[15] = PC-3, Table 19A, PC-3 cells, deleted p53, cell growth, read-out: PC-3 (deleted p53) IC50
[16] = Table 19D, read-out: MDM2 Binding Affinities IC50
[17] = SJSA-1, Table 19A, SJSA-1 cells, p53 wild-type, cell growth, read-out: SJSA-1 (p53 wild-type) IC50

Chain of recombinant human His-tagged MDM2 protein (residues 1-118) (Q00987 1-118): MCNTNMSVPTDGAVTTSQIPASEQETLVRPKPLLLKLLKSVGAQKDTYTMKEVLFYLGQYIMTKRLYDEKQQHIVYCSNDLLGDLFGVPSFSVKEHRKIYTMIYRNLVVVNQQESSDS

In the case of `CCCCC(C)(C)C[C@H]1N[C@@H](C(=O)NCC[C@H](O)CO)[C@H](c2cccc(Cl)c2)[C@@]12C(=O)Nc1cc(Cl)c(F)cc12` [MI-724], the IC50 ([1]; Table 19B, read-out: Binding affinities to MDM2 protein as determined by FP based assay IC50) is reported as less than 1 µM, the IC50 ([2]; HCT-116, read-out: Inhibition of cell growth IC50, HCT116 p53 KO, Table 19B, HCT116 p53 KO) is reported as 5.3 ± 0.3 µM and the IC50 ([2]; HCT-116, read-out: Inhibition of cell growth IC50, HCT116 p53 WT, Table 19B, HCT116 p53 WT) is reported as 1.1 ± 0.5 µM. It also gave an IC50 ([3]; LNCaP, Table 19B, LNCaP cells, read-out: Inhibition of cell growth IC50, LNCaP) of 1.2 ± 0.4 µM and an IC50 ([3]; PC-3, Table 19B, PC3 cells, read-out: Inhibition of cell growth IC50, PC3) of 3.9 ± 0.2 µM.

Work on `CNC[C@@H](O)CCNC(=O)[C@@H]1N[C@H](CC(C)(C)C)[C@]2(C(=O)Nc3cc(Cl)c(F)cc32)[C@H]1c1ccc(F)c(Cl)c1` [MI-319-30] yielded an IC50 [1, 6] of less than 5 µM, an IC50 [2, 7] greater than 10 µM and an IC50 [2, 8] greater than 10 µM. For the same molecule, the IC50 [3, 9] was greater than 5 µM and the IC50 [3, 10] was greater than 10 µM.

Molecule `CN(C)CC(=O)N1CCN(C(=O)[C@@H]2N[C@H](CC(C)(C)C)[C@]3(C(=O)Nc4cc(Cl)c(F)cc43)[C@H]2c2cccc(Cl)c2)CC1` [MI-744] has an IC50 [1, 11] of less than 10 µM, an IC50 [2, 12] of 5.7 ± 3.4 µM and an IC50 [2, 13] of 2.4 ± 0.2 µM. It also gave an IC50 [3, 14] of 1.7 ± 0.1 µM and an IC50 [3, 15] of 7.7 ± 3.1 µM.

For `CC(O)C(O)CCNC(=O)[C@@H]1N[C@H](CC(C)(C)C)[C@]2(C(=O)Nc3cc(Cl)c(F)cc32)[C@H]1c1cccc(Cl)c1` (stereo partly drawn) [MI-519-30], the IC50 [1, 11] was less than 2 µM, the IC50 [2, 12] was 19.6 ± 5.2 µM and the IC50 [2, 13] was 1.3 ± 0.3 µM. It also gave an IC50 [3, 14] of 1.1 µM and an IC50 [3, 15] of 19.1 ± 2.4 µM.

With `CC(C)(C)C[C@H]1N[C@@H](C(=O)NCC[C@H](O)CO)[C@H](c2cccc(Cl)c2)[C@@]12C(=O)Nc1cc(F)c(F)cc12` [MI-519-9] the IC50 [1, 16] was less than 3 µM, the IC50 ([2]; HCT-116, read-out: HCT116p53KO IC50, Table 19D, HCT116 p53KO) was greater than 10 µM and the IC50 ([2]; HCT-116, read-out: HCT116p53WT IC50, Table 19D, HCT116 p53WT) was less than 3 µM. It also gave an IC50 ([3]; LNCaP, Table 19D, LNCaP cells, read-out: LNCaP IC50) of less than 3 µM and an IC50 ([3]; PC-3, Table 19D, PC3 cells, read-out: PC3 IC50) greater than 10 µM.

In the case of `O=C(NC1CCC(O)CC1)[C@@H]1N[C@H](C=C2CCCC2)[C@]2(C(=O)Nc3cc(Cl)ccc32)[C@H]1c1cccc(Cl)c1F` (stereo partly drawn) [MI-792], the IC50 [1, 11] is reported as less than 5 µM, the IC50 [2, 12] is reported as greater than 20 µM and the IC50 [2, 13] is reported as less than 10 µM. It also gave an IC50 [3, 14] of less than 10 µM, an IC50 [3, 15] greater than 20 µM and an IC50 [3, 17] of less than 10 µM.

`CC(C)NC(=O)N1CC(NC(=O)[C@@H]2N[C@H](CC(C)(C)C)[C@]3(C(=O)Nc4cc(Cl)ccc43)[C@H]2c2cccc(Cl)c2F)C1` [MI-911] gave an IC50 [1, 11] of less than 3 µM, an IC50 [2, 12] greater than 10 µM and an IC50 [2, 13] of less than 5 µM. It also gave an IC50 [3, 14] of less than 5 µM, an IC50 [3, 15] greater than 10 µM and an IC50 [3, 17] of less than 5 µM.

With `CCOP(=O)(OCC)OC[C@@H](O)CCNC(=O)[C@@H]1N[C@H](CC(C)(C)C)[C@]2(C(=O)Nc3cc(Cl)c(F)cc32)[C@H]1c1ccc(F)c(Cl)c1` [MI-319-27] the IC50 [1, 6] was less than 5 µM, the IC50 [2, 7] was greater than 10 µM and the IC50 [2, 8] was less than 5 µM. The IC50 ([3]; LNCaP, read-out: Cell growth inhibition using WST assay, LNCaP IC50) was less than 5 µM and the IC50 ([3]; PC-3, read-out: Cell growth inhibition using WST assay, PC3 IC50) was greater than 10 µM.

`CC(C)(C)C[C@H]1N[C@@H](C(=O)NCC[C@H](O)CO)[C@H](c2cc(Cl)ccn2)[C@@]12C(=O)Nc1cc(Cl)c(F)cc12` [MI-319-35] showed an IC50 [1, 6] of less than 10 µM, an IC50 [2, 7] greater than 10 µM and an IC50 [2, 8] of 4.8 ± 0.5 µM. For the same molecule, the IC50 [3, 9] was 3.2 ± 0.3 µM and the IC50 [3, 10] was greater than 10 µM.

`CC(C)(C)C[C@@H]1N[C@@H](C(=O)N[C@H]2C[C@@](C)(O)C2)[C@H](c2cccc(Cl)c2F)[C@]12C(=O)Nc1c2ccc(Cl)c1F` gave an IC50 [1, 11] of less than 0.1 µM.

For `CC(C)(C)C[C@H]1N[C@@H](C(=O)NC2CN(CC(F)F)C2)[C@H](c2cccc(Cl)c2F)[C@@]12C(=O)Nc1cc(Cl)ccc12` [MI-519-72], the IC50 [1, 16] was less than 1 µM.

`CC(C)(C)C[C@H]1N[C@@H](C(=O)NC2CCN(S(=O)(=O)C(F)(F)F)CC2)[C@H](c2cccc(Cl)c2F)[C@@]12C(=O)Nc1cc(Cl)ccc12` [MI-780] showed an IC50 [1, 11] of less than 3 µM and an IC50 [3, 17] of less than 5 µM.

For `CC(C)(C)C[C@H]1N[C@@H](C(=O)NC2CC(O)C2)[C@H](c2cccc(Cl)c2F)[C@@]12C(=O)Nc1cc(Cl)ccc12` (stereo partly drawn) [MI-519-60], the IC50 ([2]; HCT-116, read-out: HCT-116 (p53 wild-type) IC50) was less than 3 µM, the “cell growth inhibition (in words)” value [3] was “more potent than its epimer MI-519-63” and the IC50 ([3]; LNCaP, read-out: LNCAP (p53 wild-type) IC50) was less than 3 µM. The IC50 ([3]; SJSA-1, read-out: SJSA-1 (p53 wild-type) IC50) was less than 3 µM, the “% of compound remaining when incubated in rat liver microsomes with NADPH” value ([4]; 0 min) was 100% and the “% of compound remaining when incubated in rat liver microsomes with NADPH” value ([4]; 5 min) was 79.93%. For the same molecule, the “% of compound remaining when incubated in rat liver microsomes with NADPH” value ([4]; 10 min) was 63.72%, the “% of compound remaining when incubated in rat liver microsomes with NADPH” value ([4]; 15 min) was 51.52% and the “% of compound remaining when incubated in rat liver microsomes with NADPH” value ([4]; 30 min) was 40.6%. The “% of compound remaining when incubated in rat liver microsomes with NADPH” value ([4]; 45 min) was 35.16%, the “% of compound remaining when incubated in rat liver microsomes with NADPH” value ([4]; 60 min) was 29.15% and the “% of compound remaining when incubated in human liver microsomes with NADPH” value ([5]; 0 min) was 100%. The “% of compound remaining when incubated in human liver microsomes with NADPH” value ([5]; 5 min) was 83.26%, the “% of compound remaining when incubated in human liver microsomes with NADPH” value ([5]; 10 min) was 68.14% and the “% of compound remaining when incubated in human liver microsomes with NADPH” value ([5]; 15 min) was 51.54%. For the same molecule, the “% of compound remaining when incubated in human liver microsomes with NADPH” value ([5]; 30 min) was 49.28%, the “% of compound remaining when incubated in human liver microsomes with NADPH” value ([5]; 45 min) was 40.97% and the “% of compound remaining when incubated in human liver microsomes with NADPH” value ([5]; 60 min) was 37.55%.
